Test results reported in patent publication US20040092498A1, “Substituted glycine derivatives for use as medicaments” (priority 2002, published 2004).

Tested on: α2δ subunit
Experiment: radioligand binding assay using [3H]gabapentin and the α2δ subunit
Conditions: [3H]gabapentin radioligand; α2δ subunit derived from porcine brain tissue
Text: The biological activity of the compounds of the invention may be measured in a radioligand binding assay using [^3H]gabapentin and the α2δ subunit derived from porcine brain tissue (Gee N. S., Brown J. P., Dissanayake V. U. K., Offord J., Thurlow R., Woodruff G. N., J. Biol. Chem., 1996;271:[…]). Results may be expressed in terms of μM or nM α2δ binding affinity.

O=C(O)CNCCSc1ccc(Cl)cc1 [Example 6, ({2-[(4-Chlorophenyl)sulfanyl]ethyl}amino)acetic acid]
Activity (binding affinity): 198 nM

NCc1ccc(SCCNCC(=O)O)cc1 [Example 8, [(2-{[4-(Aminomethyl)phenyl]sulfanyl}ethyl)amino]acetic acid]
Activity (binding affinity): 987 nM

O=C(O)CNCCOc1ccc(Cl)cc1Cl [Example 9, {[2-(2,4-Dichlorophenoxy)ethyl]amino}acetic acid]
Activity (binding affinity): 1665 nM

O=C(O)CNCCSCc1ccc(Cl)cc1 [Example 10, ({2-[(4-Chlorobenzyl)sulfanyl]ethyl}amino)acetic acid]
Activity (binding affinity): 507 nM

O=C(O)CNCCSc1ccc2ccncc2c1 [Example 11, {[2-(7-Isoquinolinylsulfanyl)ethyl]amino}acetic acid]
Activity (binding affinity): 71 nM

CCOC(=O)CNCCSc1ccc(Cl)cc1 [Example 12, Ethyl ({2-[(4-chlorophenyl)sulfanyl]ethyl}amino)acetate]
Activity (binding affinity): 5406 nM
